Experimental data: patent US8921358B2, “Apoptosis signal-regulating kinase 1 inhibitors” (Takeda Pharmaceutical Company Limited, priority 2008, dated 2014)
Counter-ions that a name gives are not always drawn.

molecular target: T1, human ASK1 (Homo sapiens, UniProt Q99683); assay: Scintillation assay measuring inhibition of ASK1 phosphorylation of myelin basic protein; assay type: biochemical; conditions: active ASK1 protein 30 ng, myelin basic protein 1 μg, [γ-32P]ATP, room temperature 30 min; values given as ranges; read-out: Enzyme Activity IC50
T1 construct: a 2.2 kb DNA fragment containing an ASK1 gene was recovered from the gel; made in house; host or cells: Sf-21 insect cells, recombinant baculovirus (pFASTBAC1, Bac-to-Bac)
T1 sequence (Q99683 649-1374 limits assumed): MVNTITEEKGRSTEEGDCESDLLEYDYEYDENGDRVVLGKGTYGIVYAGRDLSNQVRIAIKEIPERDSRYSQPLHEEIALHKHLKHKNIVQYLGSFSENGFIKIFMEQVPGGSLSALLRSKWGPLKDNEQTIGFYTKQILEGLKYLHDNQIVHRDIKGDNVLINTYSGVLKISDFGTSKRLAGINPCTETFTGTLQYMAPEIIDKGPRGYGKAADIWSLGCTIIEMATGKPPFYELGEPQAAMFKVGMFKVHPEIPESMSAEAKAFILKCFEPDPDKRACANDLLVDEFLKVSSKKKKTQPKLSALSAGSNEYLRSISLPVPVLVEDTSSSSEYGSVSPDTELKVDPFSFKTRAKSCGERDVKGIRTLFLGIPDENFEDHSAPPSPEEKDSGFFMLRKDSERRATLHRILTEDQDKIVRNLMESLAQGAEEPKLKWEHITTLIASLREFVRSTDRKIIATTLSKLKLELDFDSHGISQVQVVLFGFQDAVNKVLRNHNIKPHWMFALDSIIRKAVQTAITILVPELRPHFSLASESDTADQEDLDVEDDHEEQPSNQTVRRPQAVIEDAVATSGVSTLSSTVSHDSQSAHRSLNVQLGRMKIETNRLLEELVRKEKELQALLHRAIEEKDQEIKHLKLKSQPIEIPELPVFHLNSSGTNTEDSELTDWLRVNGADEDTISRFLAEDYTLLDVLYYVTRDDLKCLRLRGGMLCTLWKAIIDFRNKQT
Method: Cloning of cDNA encoding human ASK1 was conducted by PCR using primers, 5′-[…] AGAGAAGGGGA-3′ (SEQ ID NO: 1) and 5′-[…]-3′ (SEQ ID NO: 2), from human heart cDNA library (Becton, Dickinson and Company). The PCR product was subjected to agarose gel (1%) electrophoresis, a 2.2 kb DNA fragment containing an ASK1 gene was recovered from the gel, and then digested with restriction enzymes, NotI and SalI, and inserted into a plasmid pFASTBAC1 (Invitrogen) to prepare a plasmid pFB-ASK1. The insert was verified by sequencing. Recombinant baculovirus was prepared according to the procedure of the Bac-to-Bac baculovirus expression system (Invitrogen).
Sf-21 cells were seeded to achieve 1×10^6 cells/mL in 100 mL of Sf-900 II SFM medium (Invitrogen) which contains 10% fetal calf serum and then cultured at 27° C. for 24 hrs. To express ASK1 in cells, 0.15 mL of the recombinant baculovirus virus stock was added to cells, and the then cultured for 60 hrs. The cells were separated from the culture solution by centrifugation at 3000 rpm for 10 min and washed once with PBS. The cells were suspended in 10 mL of lysis buffer (25 mM HEPES (pH 7.5), 1% Triton X, 130 mM NaCl, 1 mM EDTA, 1 mM DTT, 25 mM β-glycerophosphate, Protease inhibitor complete (Roche), 1 mM sodium orthovanadate) and ruptured by four times of treatment with a homogenizer (POLYTRON) at 20000 rpm for 30 seconds. Active ASK1 protein was purified from a supernatant obtained by centrifugal separation at 40000 rpm for 45 min using anti-FLAG M2 Affinity Gel (Sigma).
The test compounds (2.5 μl) dissolved in DMSO were added to wells containing 37.5 μl of the reaction solution (25 mM HEPES (pH 7.5), 10 mM magnesium acetate, 1 mM DTT) including 30 ng of active ASK1 protein and 1 μg of myelin basic protein (Wako), and incubated at room temperature for 5 min. To start the reaction, 10 μL of ATP solution (2.5 μM ATP, 0.1 μCi [γ-^32P]ATP) was added to wells. After incubating at room temperature for 30 min, the reaction was terminated by adding 50 μl of 20% TCA solution. The reaction solution was incubated at 4° C. for 30 min and an acid-insoluble fraction was transferred onto a GF/C filter (Packard) with Cell Harvester (Packard), and washed with 250 mM phosphoric acid. After drying at 45° C. for 60 min., 40 μL of Microscint 0 (Packard) was added and the radioactivity was measured with TopCount (Packard). The concentrations (IC50 value) of the test compounds necessary for 50% inhibition of kinase activity were calculated by PRISM 3.0 (Graphpad Software).
The enzyme activities of selected compounds of the present invention against ASK1 were determined using the assay disclosed in Example A and B. The resulted pIC50 values are reported in Table 1.

SMILES	IC50 [nM]
COc1ccc(-c2cc(NC(=O)c3ccc(C(C)(C)O)nc3)nc3cc(C)nn23)cc1 [Compound 338, 6-(2-hydroxypropan-2-yl)-N-(7-(4-methoxyphenyl)-2-methylpyrazolo[1,5-a]pyrimidin-5-yl)nicotinamide, trifluoroacetate salt]	< 100
CC(C)(O)c1ccc(C(=O)Nc2cc(-c3cccc(CO)c3)n3nccc3n2)cc1 [Compound 6, N-(7-(3-(hydroxymethyl)phenyl)pyrazolo[1,5-a]pyrimidin-5-yl)-4-(2-hydroxypropan-2-yl)benzamide]	< 100
CC(C)(C)c1ccc(C(=O)Nc2cc(-c3cccc(CC#N)c3)n3nccc3n2)cc1 [Compound 34, 4-tert-butyl-N-{7-[3-(cyanomethyl)phenyl]pyrazolo[1,5-a]pyrimidin-5-yl}benzamide]	< 100
Cc1cc2nc(NC(=O)[C@@H]3C[C@H]3c3ccc(F)cc3)cc(N3CCC(NC(N)=O)CC3)n2n1 (racemic) [Compound 362, 2-(4-fluorophenyl)-N-(2-methyl-7-(4-ureidopiperidin-1-yl)pyrazolo[1,5-a]pyrimidin-5-yl)cyclopropanecarboxamide]	< 100
Nc1cc(-c2cccc(CO)c2)n2nccc2n1 [Compound 178, (3-(5-aminopyrazolo[1,5-a]pyrimidin-7-yl)phenyl)methanol]	> 1000
CC(C)(C)c1ccc(C(=O)Nc2cc(-c3ccc(S(C)(=O)=O)cc3)n3nccc3n2)cc1 [Compound 8, 4-tert-butyl-N-(7-(4-(methylsulfonyl)phenyl)pyrazolo[1,5-a]pyrimidin-5-yl)benzamide]	> 1000
Cc1cc2nc(NC(=O)c3ccc(C(C)(C)C)cc3)cc(-c3cccc(CCCO)c3)n2n1 [Compound 3, 4-(tert-butyl)-N-(7-(3-(3-hydroxypropyl)phenyl)-2-methylpyrazolo[1,5-a]pyrimidin-5-yl)benzamide]	< 100
CN(C)c1cc(NC(=O)c2ccc(C(C)(C)C)cc2)nc2ccnn12 [Compound 125, 4-tert-butyl-N-(7-(dimethylamino)pyrazolo[1,5-a]pyrimidin-5-yl)benzamide]	< 100
Cc1cc2nc(NC(=O)c3ccc(C(C)(C)C)cc3)cc(-c3cccc(CO)c3)n2n1 [Compound 1, 4-tert-butyl-N-(7-(3-(hydroxymethyl)phenyl)-2-methylpyrazolo[1,5-a]pyrimidin-5-yl)benzamide]	< 100
Cc1ccc(-c2cc(NC(=O)c3ccc(C(C)(C)O)cc3)nc3ccnn23)cc1 [Compound 20, 4-(2-Hydroxypropan-2-yl)-N-(7-p-tolylpyrazolo[1,5-a]pyrimidin-5-yl)benzamide]	< 100
CC(O)(c1ccc(C(=O)Nc2cc(-c3cccc(CO)c3)n3nccc3n2)cc1)C(F)(F)F (centres unmarked) [Compound 7, N-(7-(3-(hydroxymethyl)phenyl)pyrazolo[1,5-a]pyrimidin-5-yl)-4-(1,1,1-trifluoro-2-hydroxypropan-2-yl)benzamide]	< 100
COc1ccc(-c2cc(NC(=O)c3ccc(C(C)(C)C)cc3)nc3ccnn23)cn1 [Compound 13, 4-tert-Butyl-N-(7-(6-methoxypyridin-3-yl)pyrazolo[1,5-a]pyrimidin-5-yl)benzamide]	> 1000
CC(C)(O)c1ccc(C(=O)Nc2cc(-c3cccc(NS(C)(=O)=O)c3)n3nccc3n2)cc1 [Compound 17, 4-(2-Hydroxypropan-2-yl)-N-(7-(3-(methylsulfonamido)phenyl)pyrazolo[1,5-a]pyrimidin-5-yl)benzamide]	100 to 1000
CC(C)(C)c1ccc(C(=O)Nc2cc(-c3cccc(CCCO)c3)n3nccc3n2)cc1 [Compound 11, 4-tert-Butyl-N-(7-(3-(3-hydroxypropyl)phenyl)pyrazolo[1,5-a]pyrimidin-5-yl)benzamide]	< 100
Cc1cc2nc(N)cc(-c3cccc(CO)c3)n2n1 [Compound 173, (3-(5-amino-2-methylpyrazolo[1,5-a]pyrimidin-7-yl)phenyl)methanol]	> 1000

Other lines, results leading:

IC50 [nM]	SMILES
> 1000	CC(C)(O)c1ccc(C(=O)Nc2cc(N3CCC[C@H]3C(N)=O)n3nccc3n2)cc1 [Compound 92, (S)-1-(5-(4-(2-hydroxypropan-2-yl)benzamido)pyrazolo[1,5-a]pyrimidin-7-yl)pyrrolidine-2-carboxamide]
> 1000	CC(C)(O)c1ccc(C(=O)Nc2cc(N3CCC[C@H](C(=O)O)C3)n3nccc3n2)cc1 [Compound 86, (S)-1-(5-(4-(2-hydroxypropan-2-yl)benzamido)pyrazolo[1,5-a]pyrimidin-7-yl)piperidine-3-carboxylic acid]
100 to 1000	CC(C)(O)c1ccc(C(=O)Nc2cc(N3CCC(O)CC3)n3nccc3n2)cc1 [Compound 73, N-(7-(4-hydroxypiperidin-1-yl)pyrazolo[1,5-a]pyrimidin-5-yl)-4-(2-hydroxypropan-2-yl)benzamide]
100 to 1000	CC(C)(O)c1ccc(C(=O)Nc2cc(N3CCC[C@H](O)C3)n3nccc3n2)cc1 [Compound 78, (S)—N-(7-(3-hydroxypiperidin-1-yl)pyrazolo[1,5-a]pyrimidin-5-yl)-4-(2-hydroxypropan-2-yl)benzamide]
100 to 1000	CC(C)(O)c1ccc(C(=O)Nc2cc(N3CC[C@H](O)C3)n3nccc3n2)cc1 [Compound 70, (S)-4-(2-hydroxypropan-2-yl)-N-(7-(3-hydroxypyrrolidin-1-yl)pyrazolo[1,5-a]pyrimidin-5-yl)benzamide]
100 to 1000	CC(C)(O)c1ccc(C(=O)Nc2cc(N3CCNC(=O)CC3)n3nccc3n2)cc1 [Compound 93, 4-(2-hydroxypropan-2-yl)-N-(7-(5-oxo-1,4-diazepan-1-yl)pyrazolo[1,5-a]pyrimidin-5-yl)benzamide]
< 100	CC(C)(O)c1ccc(C(=O)Nc2cc(N3CCC[C@@H](C(N)=O)C3)n3nccc3n2)cc1 [Compound 83, (R)-1-(5-(4-(2-hydroxypropan-2-yl)benzamido)pyrazolo[1,5-a]pyrimidin-7-yl)piperidine-3-carboxamide]
< 100	CC(C)(O)c1ccc(C(=O)Nc2cc(-c3ccccc3)n3nccc3n2)cc1 [Compound 16, 4-(2-Hydroxypropan-2-yl)-N-(7-phenylpyrazolo[1,5-a]pyrimidin-5-yl)benzamide]
100 to 1000	CC(C)(O)c1ccc(C(=O)Nc2cc(NC3CC3)n3nccc3n2)cc1 [Compound 88, N-(7-(cyclopropylamino)pyrazolo[1,5-a]pyrimidin-5-yl)-4-(2-hydroxypropan-2-yl)benzamide]
< 100	CC(C)(C)c1ccc(C(=O)Nc2cc(NC3CC3)n3nccc3n2)cc1 [Compound 128, 4-tert-butyl-N-[7-(cyclopropylamino)pyrazolo[1,5-a]pyrimidin-5-yl]benzamide]
100 to 1000	CC(C)(O)c1ccc(C(=O)Nc2cc(N3CCC[C@@H](O)C3)n3nccc3n2)cc1 [Compound 76, (R)—N-(7-(3-hydroxypiperidin-1-yl)pyrazolo[1,5-a]pyrimidin-5-yl)-4-(2-hydroxypropan-2-yl)benzamide]
